Drawing on US20240247035A1, “STAPLED ANTIMICROBIAL PEPTIDES (STAMPS) AND USES THEREOF” (Lytica Therapeutics, Inc., priority 2021, published 2024), this text covers IC50 for twelve molecules.

A word on the IC50: it is the point on the concentration scale where inhibition reaches its midpoint.

Converted amounts (≈) assume the structure as drawn. Bridge positions count the residues as written; N and C are the ends. Square brackets hold non-standard residues; d marks the D form. Peptide text beside a SMILES is read from it. Phe(4-tBu) = CC(C)(C)c1ccc(C[C@H](N)C(=O)O)cc1; S5 = C=CCCC[C@](C)(N)C(=O)O

The nature of series [1]: 90 minute cytotoxicity assay (LDH release), renal toxicity. It counts as cell-based. Particulars: human. The protocol: (§1) Cell culture: RPTEC were maintained in MEM media supplemented with growth factors. HEPG2 cell line was maintained in Eagle's Minimum Essential Medium (EMEM) supplemented with fetal bovine serum to a final concentration of 10%.
90 minute cytotoxicity assay: Cells were plated in a 96-well format, and after overnight incubation, media was replaced with fresh media. Serial dilutions of StAMPs from a 5 mg/mL water stock, or vehicle, were added to the cells in a final volume of 100 μl. After incubating at 37° C. for 90 min, 50 μl of cell culture media was transferred to a clear 96-well plate, incubated with 50 μl of lactate dehydrogenase (LDH) assay reagent for 10 min, and absorbance measured at 490 nm on a microplate reader.
(§2) Renal toxicity was measured after 90 minutes of incubation, while liver toxicity was measured after 48 hours of incubation with StAMPs. N/A=not tested.

Series [2] can be described thus: 48 hours cytotoxicity assay (CellTiter-Glo), liver toxicity. It is filed as cell-based. The note with it: human. The protocol: as §1
48 hours cytotoxicity assay: Cells were plated in a 96-well format, and after 4 hour incubation to allow attachment, serial dilutions of StAMPs from a 5 mg/mL water stock, or vehicle, were then added to the cells in a final volume of 100 μl. After incubating at 37° C. for 48 hours, 100 μl of CellTiter-Glo® reagent was added to the cells, and the plates were incubated 10 minutes at room temperature. Luminescence was then measured on a microplate reader.
as §2
In general terms: ATP-based viability assays read luminescence as a measure of living cells.

In the case of `CC[C@H](C)[C@H](NC(=O)[C@H](CCCCN)NC(=O)[C@H](CCCCN)NC(=O)CNC(=O)[C@H](CCCCN)NC(=O)[C@]1(C)CCCC=CCCC[C@](C)(NC(=O)CN)C(=O)N[C@@H](Cc2ccccc2)C(=O)N[C@@H](CO)C(=O)N[C@@H](CCCCN)C(=O)N1)C(=O)N[C@@H](CCCCN)C(=O)N[C@@H](CC(N)=O)C(=O)N[C@@H](CC(C)C)C(=O)N[C@@]1(C)CCCC=CCCC[C@@](C)(C(=O)N[C@@H](CCCCN)C(=O)NCC(N)=O)NC(=O)CNC(=O)[C@H](CO)NC(=O)[C@H]([C@@H](C)CC)NC1=O` [compound 1] (H-G[S5]FSK[S5]KGKKIKNL[S5]ISG[S5]KG-NH2; staple 2-6, 15-19), in series [1], the IC50 at 90 min stood at 48 µg/mL (≈ 21 µM). Further, half-maximal inhibition in series [2] (IC50 at 48 hours) required 47 µg/mL (≈ 20.5 µM).

The molecule `CC[C@H](C)[C@H](NC(=O)[C@H](CCCCN)NC(=O)[C@H](CCCCN)NC(=O)CNC(=O)[C@H](CCCCN)NC(=O)[C@]1(C)CCCC=CCCC[C@](C)(NC(=O)CN)C(=O)N[C@@H](CCCCN)C(=O)N[C@@H](CO)C(=O)N[C@@H](CCCCN)C(=O)N1)C(=O)N[C@@H](CCCCN)C(=O)N[C@@H](CC(N)=O)C(=O)N[C@@H](CC(C)C)C(=O)N[C@@]1(C)CCCC=CCCC[C@@](C)(C(=O)N[C@@H](CCCCN)C(=O)NCC(N)=O)NC(=O)CNC(=O)[C@H](CO)NC(=O)[C@H]([C@@H](C)CC)NC1=O` [compound 2] (H-G[S5]KSK[S5]KGKKIKNL[S5]ISG[S5]KG-NH2; staple 2-6, 15-19) came in with a concentration for half-maximal inhibition (IC50) at 90 min in series [1] of 203 µg/mL (≈ 89.4 µM). For the same molecule, in series [2], the half-inhibitory concentration (IC50) at 48 hours turned out to be 109 µg/mL (≈ 48 µM). For `CC[C@H](C)[C@H](NC(=O)[C@H](CCCCN)NC(=O)[C@H](CCCCN)NC(=O)CNC(=O)[C@H](CCCCN)NC(=O)[C@]1(C)CCCC=CCCC[C@](C)(NC(=O)CN)C(=O)N[C@@H](Cc2ccccc2)C(=O)N[C@@H](CO)C(=O)N[C@@H](CCCCN)C(=O)N1)C(=O)N[C@@H](CCCCN)C(=O)N[C@@H](CC(N)=O)C(=O)N[C@@H](CC(C)C)C(=O)N[C@@]1(C)CCCC=CCCC[C@@](C)(C(=O)N[C@@H](CCCCN)C(=O)NCC(N)=O)NC(=O)[C@H](CCCCN)NC(=O)[C@H](CO)NC(=O)[C@H]([C@@H](C)CC)NC1=O` [compound 3] (H-G[S5]FSK[S5]KGKKIKNL[S5]ISK[S5]KG-NH2; staple 2-6, 15-19) the same measures were 119 µg/mL (≈ 50.4 µM) and 57 µg/mL (≈ 24.1 µM). In the case of `CC[C@H](C)[C@H](NC(=O)[C@H](CCCCN)NC(=O)[C@H](CCCCN)NC(=O)CNC(=O)[C@H](CCCCN)NC(=O)[C@]1(C)CCCC=CCCC[C@](C)(NC(=O)CN)C(=O)N[C@@H](Cc2ccccc2)C(=O)N[C@@H](CO)C(=O)N[C@@H](CCCCN)C(=O)N1)C(=O)N[C@@H](CCCCN)C(=O)N[C@@H](CC(N)=O)C(=O)N[C@@H](CC(C)C)C(=O)N[C@@]1(C)CCCC=CCCC[C@@](C)(C(=O)N[C@@H](CCCCN)C(=O)N[C@@H](CCCCN)C(N)=O)NC(=O)CNC(=O)[C@H](CO)NC(=O)[C@H]([C@@H](C)CC)NC1=O` [compound 4] (H-G[S5]FSK[S5]KGKKIKNL[S5]ISG[S5]KK-NH2; staple 2-6, 15-19), in series [1], the IC50 at 90 min is 34 µg/mL (≈ 14.4 µM). For the same molecule, it took 24 µg/mL (≈ 10.2 µM) to reach half-maximal inhibition in series [2] (IC50 at 48 hours). On to `CC[C@H](C)[C@H](NC(=O)[C@H](CCCCN)NC(=O)[C@H](CCCCN)NC(=O)CNC(=O)[C@H](CCCCN)NC(=O)[C@]1(C)CCCC=CCCC[C@](C)(NC(=O)CN)C(=O)N[C@@H](CCCCN)C(=O)N[C@@H](CO)C(=O)N[C@@H](CCCCN)C(=O)N1)C(=O)N[C@@H](CCCCN)C(=O)N[C@@H](CC(N)=O)C(=O)N[C@@H](CC(C)C)C(=O)N[C@@]1(C)CCCC=CCCC[C@@](C)(C(=O)N[C@@H](CCCCN)C(=O)NCC(N)=O)NC(=O)[C@H](CCCCN)NC(=O)[C@H](CO)NC(=O)[C@H]([C@@H](C)CC)NC1=O` [compound 5] (H-G[S5]KSK[S5]KGKKIKNL[S5]ISK[S5]KG-NH2; staple 2-6, 15-19), for which half-maximal inhibition in series [1] (IC50 at 90 min) required 180 µg/mL (≈ 76.9 µM). The same molecule yielded a half-maximal inhibitory concentration (IC50) at 48 hours in series [2] of 100 µg/mL (≈ 42.7 µM). The molecule `CC[C@H](C)[C@H](NC(=O)[C@H](CCCCN)NC(=O)[C@H](CCCCN)NC(=O)CNC(=O)[C@H](CCCCN)NC(=O)[C@]1(C)CCCC=CCCC[C@](C)(NC(=O)CN)C(=O)N[C@@H](CCCCN)C(=O)N[C@@H](C(C)C)C(=O)N[C@@H](CCCCN)C(=O)N1)C(=O)N[C@@H](CCCCN)C(=O)N[C@@H](CC(N)=O)C(=O)N[C@@H](CC(C)C)C(=O)N[C@@]1(C)CCCC=CCCC[C@@](C)(C(=O)N[C@@H](CCCCN)C(=O)NCC(N)=O)NC(=O)CNC(=O)[C@H](CO)NC(=O)[C@H]([C@@H](C)CC)NC1=O` [compound 6] (H-G[S5]KVK[S5]KGKKIKNL[S5]ISG[S5]KG-NH2; staple 2-6, 15-19) had an IC50 at 90 min in series [1] of 215 µg/mL (≈ 94.2 µM). Also, inhibition in series [2] was half-maximal at 200 µg/mL (≈ 87.6 µM) (IC50 at 48 hours). For `CC[C@H](C)[C@H](NC(=O)[C@H](CCCCN)NC(=O)[C@H](CCCCN)NC(=O)[C@@H](NC(=O)[C@H](CCCCN)NC(=O)[C@]1(C)CCCC=CCCC[C@](C)(NC(=O)CN)C(=O)N[C@@H](CCCCN)C(=O)N[C@@H](CO)C(=O)N[C@@H](CCCCN)C(=O)N1)C(C)C)C(=O)N[C@@H](CCCCN)C(=O)N[C@@H](CC(N)=O)C(=O)N[C@@H](CC(C)C)C(=O)N[C@@]1(C)CCCC=CCCC[C@@](C)(C(=O)N[C@@H](CCCCN)C(=O)NCC(N)=O)NC(=O)CNC(=O)[C@H](CO)NC(=O)[C@H]([C@@H](C)CC)NC1=O` [compound 7] (H-G[S5]KSK[S5]KVKKIKNL[S5]ISG[S5]KG-NH2; staple 2-6, 15-19) the same measures were 191 µg/mL (≈ 82.6 µM) and 72 µg/mL (≈ 31.1 µM). For `CC[C@H](C)[C@@H]1NC(=O)[C@@](C)(NC(=O)[C@H](CC(C)C)NC(=O)[C@H](CC(N)=O)NC(=O)[C@H](CCCCN)NC(=O)[C@@H](NC(=O)[C@H](CCCCN)NC(=O)[C@H](CCCCN)NC(=O)CNC(=O)[C@H](CCCCN)NC(=O)[C@]2(C)CCCC=CCCC[C@](C)(NC(=O)CN)C(=O)N[C@@H](CCCCN)C(=O)N[C@@H](CO)C(=O)N[C@@H](CCCCN)C(=O)N2)C(C)C)CCCC=CCCC[C@@](C)(C(=O)N[C@@H](CCCCN)C(=O)NCC(N)=O)NC(=O)CNC(=O)[C@H](CO)NC1=O` [compound 8] (H-G[S5]KSK[S5]KGKKVKNL[S5]ISG[S5]KG-NH2; staple 2-6, 15-19) the same measures were greater than 200 µg/mL and greater than 200 µg/mL. For `CC[C@H](C)[C@@H]1NC(=O)[C@@](C)(NC(=O)[C@H](CC(C)C)NC(=O)[C@H](CC(N)=O)NC(=O)[C@H](CCCCN)NC(=O)[C@H](CC(C)C)NC(=O)[C@H](CCCCN)NC(=O)[C@H](CCCCN)NC(=O)CNC(=O)[C@H](C)NC(=O)[C@]2(C)CCCC=CCCC[C@](C)(NC(=O)CN)C(=O)N[C@@H](CCCCN)C(=O)N[C@@H](CO)C(=O)N[C@@H](CCCCN)C(=O)N2)CCCC=CCCC[C@@](C)(C(=O)N[C@@H](CCCCN)C(=O)N[C@@H](CC(N)=O)C(N)=O)NC(=O)CNC(=O)[C@H](CO)NC1=O` [compound 9] (H-G[S5]KSK[S5]AGKKLKNL[S5]ISG[S5]KN-NH2; staple 2-6, 15-19) the same measures were 184 µg/mL (≈ 81 µM) and 107 µg/mL (≈ 47.1 µM). Regarding `CC[C@H](C)[C@H](NC(=O)[C@H](CCCCN)NC(=O)[C@H](CCCCN)NC(=O)CNC(=O)[C@H](C)NC(=O)[C@]1(C)CCCC=CCCC[C@](C)(NC(=O)CN)C(=O)N[C@@H](Cc2ccccc2)C(=O)N[C@@H](CO)C(=O)N[C@@H](CCCCN)C(=O)N1)C(=O)N[C@@H](CCCCN)C(=O)N[C@@H](CC(N)=O)C(=O)N[C@@H](CC(C)C)C(=O)N[C@@]1(C)CCCC=CCCC[C@@](C)(C(=O)N[C@@H](CCCCN)C(=O)N[C@@H](CC(N)=O)C(N)=O)NC(=O)CNC(=O)[C@H](CO)NC(=O)[C@H]([C@@H](C)CC)NC1=O` [compound 10] (H-G[S5]FSK[S5]AGKKIKNL[S5]ISG[S5]KN-NH2; staple 2-6, 15-19), the midpoint of inhibition in series [1], the IC50 at 90 min, lay at 18 µg/mL (≈ 7.86 µM). It took 16 µg/mL (≈ 6.99 µM) to reach half-maximal inhibition in series [2] (IC50 at 48 hours). In series [1], `CC[C@H](C)[C@H](NC(=O)[C@H](CCCCN)NC(=O)[C@H](CCCCN)NC(=O)CNC(=O)[C@H](C)NC(=O)[C@]1(C)CCCC=CCCC[C@](C)(NC(=O)CN)C(=O)N[C@@H](CCCCN)C(=O)N[C@@H](CO)C(=O)N[C@@H](CCCCN)C(=O)N1)C(=O)N[C@@H](CCCCN)C(=O)N[C@@H](CC(N)=O)C(=O)N[C@@H](CC(C)C)C(=O)N[C@@]1(C)CCCC=CCCC[C@@](C)(C(=O)N[C@@H](CCCCN)C(=O)N[C@@H](CC(N)=O)C(N)=O)NC(=O)CNC(=O)[C@H](CO)NC(=O)[C@H]([C@@H](C)CC)NC1=O` [compound 11] (H-G[S5]KSK[S5]AGKKIKNL[S5]ISG[S5]KN-NH2; staple 2-6, 15-19) displayed an IC50 at 90 min of 186 µg/mL (≈ 81.9 µM). Moreover, the midpoint of inhibition in series [2], the IC50 at 48 hours, lay at 125 µg/mL (≈ 55 µM). In turn, `CC[C@H](C)[C@@H]1NC(=O)[C@@](C)(NC(=O)[C@H](CC(C)C)NC(=O)[C@H](CC(N)=O)NC(=O)[C@H](CCCCN)NC(=O)[C@H](Cc2ccc(C(C)(C)C)cc2)NC(=O)[C@H](CCCCN)NC(=O)[C@H](CCCCN)NC(=O)CNC(=O)[C@H](CCCCN)NC(=O)[C@]2(C)CCCC=CCCC[C@](C)(NC(=O)CN)C(=O)N[C@@H](CCCCN)C(=O)N[C@@H](CO)C(=O)N[C@@H](CCCCN)C(=O)N2)CCCC=CCCC[C@@](C)(C(=O)N[C@@H](CCCCN)C(=O)N[C@@H](CC(N)=O)C(N)=O)NC(=O)CNC(=O)[C@H](CO)NC1=O` [compound 18] (H-G[S5]KSK[S5]KGKK[Phe(4-tBu)]KNL[S5]ISG[S5]KN-NH2; staple 2-6, 15-19) registered a concentration for half-maximal inhibition (IC50) at 48 hours in series [2] of 21 µg/mL (≈ 8.68 µM).
